Test results taken from PMC5853558, “De novo identification of lipid II binding lipopeptides with antibacterial activity against vancomycin-resistant bacteria” (Chemical Science, 2017).
Converted amounts (≈) assume the structure as drawn. *1 amine or outer side, *2 acyl side, *3 side chain or, on linkers, in order; H or OH if unused. Where a SMILES comes first, the peptide text is derived from it. Bridges are numbered along the chain shown (N, C = ends). [ ]: non-standard residue; d: D form. The star is where a group is joined. TBMB = c1c(C[*:1])cc(C[*:3])cc1C[*:2]; NHDecyl = CCCCCCCCCCN*

Experiments:
[1] = test system: lipid II; test: Lipid II antagonization assay; format: cell-based, M. luteus; design: key to Result with antagonist Lipid II: +: antagonization of antibiotic activity; -: no antagonization of antibiotic activity; details: for Result with antagonist Lipid II: Supplemental table S10, peptide at 4x MIC, antagonist at 4 molar equivalents, M. luteus 1 x 10^6 CFU/ml, 16 h at 30°C, growth observed visually; for Effect of pre-incubation with lipid II on antibacterial activity: premixed with an excess of lipid II before addition of a live culture of M. luteus
Method: (§1) To assess the role of lipid II in the mode of action of the lipopeptides a lipid II antagonization assay was employed.[18],[33] This assay was performed by premixing P8-D-C10 or the optimized P8-D-(S6R, R15A)-C10 with an excess of lipid II prior to addition of a live culture of M. luteus. […] To probe the stereochemical aspects of lipid II recognition by the optimized P8-D-(S6R, R15A)-C10 lipopeptide we also prepared and tested the corresponding enantiomeric L-peptide species P8-L-(S6R, R15A)-C10. […] Given that lipid II is a chiral biomolecule we had expected the enantiomeric lipopeptides to have different activities based on the assumption that they would interact differently with lipid II. To further investigate this phenomenon we employed the same lipid II antagonization assay described above. […] To explain this observation we hypothesize that the two enantiomeric peptides interact primarily with the pyrophosphate moiety of lipid II and are therefore less influenced by the chiral elements present elsewhere in the lipid II molecule. The pyrophosphate group is known to be a binding site for many natural occurring lipid II binding peptides.[15],[16] […] To test the hypothesis that both the P8-D-(S6R, R15A)-C10 and P8-L-(S6R, R15A)-C10 lipopeptides interact with the pyrophosphate moiety we performed an additional antagonizaiton experiment using C55-PP.
(§2) Section 4 Biological and biochemical experiments
(§3) 4.1 Minimum inhibitory concentration assay
(§4) MIC values were determined by using the broth microdilution method. Peptides were dissolved first in DMSO and diluted with broth so that the final peptide concentration was 1024 µg/ml and the DMSO concentration was 4%. Peptide serial dilutions were made in TSB in a polypropylene 96-wells plate using 50 µl volumes. An overnight culture of the organism of interest was diluted to and OD600 of 0.01 and grown until they reach 0.5. The culture was then diluted to 1 x 10^6 CFU/ml and 50 µl of this suspension was added to each well. The highest concentrations were then 512 µg/ml peptide and 2% DMSO. The plates were incubated at the preferred growth temperature of the organism that was used and 250 rpm. […] When […]
(§5) determining the MICs of the lipidated peptides, the lipopeptides were first dissolved in DMSO and diluted with TSB so that the peptide concentration was 128 µg/ml and the DMSO concentration was 4%. After inoculation the highest peptide concentration evaluated was 64 µg/ml and the DMSO concentration was 2%. A DMSO control was tested for each strain to ensure the DMSO did not affect the growth of the particular strain. […]
(§6) 4.4 Antagonization assays
(§7) Stock solutions of each peptide antibiotic were prepared so that their final concentration in the assay would be 4x MIC. Peptides were transferred to a 96 wells plate and lipid II or C15-P (farnesyl-phosphate) was added at 4 molar equivalents in a final volume of 50 µl. Each well received 50 µl of bacterial suspension (M. luteus) at 1 x 10^6 CFU/ml and the plates were incubated for 16 h at 250 rpm and 30°C. Growth was observed visually (see supplemental table S10 for results).

[2] = test system: Sheep blood; test: Hemolysis assay; format: cell-based; details: Supplemental table S9; 1 hour incubation at 37 °C, lipopeptides at 32 µg/mL
Method: Sheep blood in Alsever’s solution (2 mL) was diluted with PBS (13 mL) and centrifuged (2,000 RPM, 5 min). The supernatant was discarded and the cells were washed with another 13 mL of PBS and centrifuged. Washing was continued until the supernatant was clear. After the final wash the supernatant was discarded and the packed cells were kept on ice. Serial dilutions of each peptide were made in 50 µl PBS with the highest tested concentration 64 µg/mL in PBS, 2%
DMSO. The packed cells (150 µL) were suspended in PBS (10 mL) and 50 µL of this suspension was added to each well. A well plate column containing 0.1% triton x-100 in DI water was used as the 100% lysis control and a second column with PBS (with 2% DMSO) served as the 0% lysis control. After incubation at 37°C for 1h the plates were centrifuged (2,000 RPM, 5 min) and 25 µL of the supernatant was added to 100 µL DI water in a flat-bottom 96-wells plate (polystyrene). […]

[3] = test system: C55-PP; test: Antagonization assay with C55-PP; format: cell-based, M. luteus; design: key to Result with antagonist C55-PP: +: antagonization of antibiotic activity; -: no antagonization of antibiotic activity; details: for Result with antagonist C55-PP: Supplemental table S10, peptide at 4x MIC, M. luteus, 16 h at 30°C, growth observed visually; for Effect of adding C55-PP on antibiotic activity: antagonization experiment using C55-PP
Method: as §1, §2, §3, §4, §5, §6, §7

[4] = test system: E. faecium (VRE155); test: microbe, parasite or virus in culture; format: cell-based, Enterococcus faecium
Procedure, shortened: (§8)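 TSB microdilution MIC. Top final peptide 512 µg/ml, lipopeptides 64 µg/ml, DMSO 2%; cells grown to OD600 0.5, suspension at 1 x 10^6 CFU/ml added 1:1; shaken 250 rpm at strain's optimal temperature; DMSO-only control per strain.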

[5] = test system: E. faecium (VRE2297); test: microbe, parasite or virus in culture; format: cell-based, Enterococcus faecium
Procedure, shortened: as §8

[6] = test system: E. faecium (VRE0321); test: microbe, parasite or virus in culture; format: cell-based, Enterococcus faecium
Procedure, shortened: as §8

[7] = test system: C15-P (farnesyl-phosphate); test: Antagonization assay with C15-P (negative control); format: cell-based; design: key: +: antagonization of antibiotic activity; -: no antagonization of antibiotic activity; details: Supplemental table S10, peptide at 4x MIC, 4 molar equivalents, M. luteus, 16 h at 30°C, growth observed visually
Method: as §2, §3, §4, §5, §6, §7
Supplemental table S10. Lipid II antagonization assay results
Result with indicated antagonista
Antibiotic compound Lipid II C55-PP C15-Pb […]
a + = antagonization of antibiotic activity; - = no antagonization of antibiotic activity; b C -P was used as a negative […]
control (C15-P is a watersoluble analogue of the lipid II precursor undecaprenol phosphate).
4.6 Scanning Electron Microscopy
E. faecium E155 was inoculated at an OD600nm of 0.05 into 300 µL of cation adjusted TSB containing P8-D-(S6R, R15A)-C10 or nisin at (both a 2x MIC) along with 1% glucose and 1%
DMSO. An untreated culture was used as control. Following overnight incubation (ca. 16 hr) bacterial cells were fixed for 15 minutes with 1% (v/v) glutaraldehyde in phosphate buffered saline (PBS) at room temperature on poly-L-lysine covered glass slides (12 mm diameter). […]

[8] = Supplemental table S9, vancomycin-resistant isolate, MIC values of Table 2 expressed in µM
[9] = Table 2, vancomycin-resistant isolate from hospitalized patients, broth microdilution in TSB, 16 h, highest tested 64 µg/ml

Row | SMILES | Result with antagonist Lipid II [1] | Effect of pre-incubation with lipid II on antibacterial activity [1] | Hemolysis [2] [%] | Result with antagonist C55-PP [3] | Effect of adding C55-PP on antibiotic activity [3] | MIC E. faecium (VRE155) [4, 8] [µM] | MIC E. faecium (VRE155) [4, 9] [μg mL^–1] | MIC E. faecium (VRE2297) [5, 8] [µM] | MIC E. faecium (VRE2297) [5, 9] [μg mL^–1] | MIC E. faecium (VRE0321) [6, 8] [µM] | MIC E. faecium (VRE0321) [6, 9] [μg mL^–1] | Result with antagonist C15-P [7]
1 | CCCCCCCCCCNC(=O)CNC(=O)[C@H]1CSCc2cc3cc(c2)CSC[C@@H](NC(=O)[C@@H](CC(C)C)NC(=O)[C@@H](CC(C)C)NC(=O)[C@@H](CCCNC(=N)N)NC(=O)[C@@H](CCC(N)=O)NC(=O)[C@@H](CC(C)C)NC(=O)[C@@H](CC(C)C)NC(=O)[C@H](NC(=O)[C@@H](C)N)CSC3)C(=O)N2CCC[C@@H]2C(=O)N[C@H](Cc2ccc(O)cc2)C(=O)N[C@H](CO)C(=O)N[C@H]([C@H](C)O)C(=O)N[C@H](Cc2c[nH]cn2)C(=O)N[C@H](C)C(=O)N1 [P8-D-(S6R, R15A)-C10] (H-[dA][dC][dL][dL][dQ][dR][dL][dL][dC][dP][dY][dS][dT][dH][dA][dC]G-NHDecyl; linker 2-9-16 via TBMB; N-terminus assumed) | + | antagonization of antibacterial activity | 0 | + | complete loss of antibiotic activity | 7.6 (≈ 16 µg/mL) | 8 | 15.2 (≈ 32 µg/mL) | 16 | 7.6 (≈ 16 µg/mL) | 8 | -
2 | CCCCCCCCCCNC(=O)CNC(=O)[C@@H]1CSCc2cc3cc(c2)CSC[C@H](NC(=O)[C@H](CC(C)C)NC(=O)[C@H](CC(C)C)NC(=O)[C@H](CCCNC(=N)N)NC(=O)[C@H](CCC(N)=O)NC(=O)[C@H](CC(C)C)NC(=O)[C@H](CC(C)C)NC(=O)[C@@H](NC(=O)[C@H](C)N)CSC3)C(=O)N2CCC[C@H]2C(=O)N[C@@H](Cc2ccc(O)cc2)C(=O)N[C@@H](CO)C(=O)N[C@@H]([C@@H](C)O)C(=O)N[C@@H](Cc2c[nH]cn2)C(=O)N[C@@H](C)C(=O)N1 [P8-L-(S6R, R15A)-C10] (H-ACLLQRLLCPYSTHACG-NHDecyl; linker 2-9-16 via TBMB; N-terminus assumed) | + | effectively antagonized | 0 | + | complete loss of antibiotic activity | 7.6 (≈ 16 µg/mL) | 8 | 15.2 (≈ 32 µg/mL) | 16 | 7.6 (≈ 16 µg/mL) | 8 | -
